Drawing on ChEMBL document CHEMBL1158048, “19-Nor- and 18,20-epoxy-cardenolides from the leaves of Calotropis gigantea” (J Nat Prod, 2006), this text covers IC50 and Activity for 9 compounds.

Active and inactive are the calls of the source. The calls are words filed in the database; no cut-off is given here.

For experiment [1], the system named is NCI-H187. Kind of experiment: Cytotoxicity against human NCI-H187 cells by SRB assay. The experiment is classed as functional, cell-based. For orientation: In SRB staining, fixed cells bind dye roughly in proportion to their protein.
For experiment [2], the system named is KB. Put plainly: Cytotoxicity against human KB cells by SRB assay. The experiment is classed as functional, cell-based.
Experiment [3] is described as follows: Cytotoxicity against human BC cells by SRB assay. The experiment is classed as functional, cell-based.
Experiment [4] concerns KB. Kind of experiment: Cytotoxicity against human KB cells at 20 ug/ml by SRB assay. The experiment is classed as functional, cell-based.
Another experiment has as its system BC. Kind of experiment: Cytotoxicity against human BC cells at 20 ug/ml by SRB assay. Format: functional, cell-based.
The test system of experiment [5] is NCI-H187. Kind of experiment: Cytotoxicity against human NCI-H187 cells at 20 ug/ml by SRB assay. The experiment is classed as functional, cell-based.
The test system of the next experiment is Plasmodium falciparum. Put plainly: Antimalarial activity after 48 hrs against multidrug-resistant Plasmodium falciparum K1. Format: functional, organism-based.

As to `C[C@@H]1C[C@H](O)[C@]2(O)O[C@@H]3C[C@@]4(C=O)[C@@H](CC[C@@H]5[C@@H]4CC[C@]4(C)[C@@H](C6=CC(=O)OC6)C[C@@H](O)[C@]54O)C[C@H]3O[C@@H]2O1`, the IC50 – broadly, the point on the concentration scale where inhibition reaches its midpoint – was 3.33 µM in the experiment on NCI-H187 [1], 0.602 µM in the experiment on KB [2] and 0.547 µM in experiment [3].

On to `C[C@@H]1C[C@H](O)[C@]2(O)O[C@@H]3C[C@@]4(C=O)[C@@H](CC[C@@H]5[C@@H]4CC[C@]46CO[C@]7(COC(=O)C7)[C@H]4CC[C@]56O)C[C@H]3O[C@@H]2O1`, for which the IC50 worked out at 3.64 µM in the experiment with NCI-H187 [1], 1.29 µM in the experiment on KB [2] and 2.21 µM in experiment [3].

For `COC(=O)[C@@]1(O)C[C@@H](C)O[C@H]1O[C@@H]1C[C@@H]2CC[C@@H]3[C@H](CC[C@]4(C)[C@@H](C5=CC(=O)OC5)CC[C@]34O)[C@@]2(C(=O)O)C[C@H]1O`, the outcome in the experiment with KB [4], with BC and in the experiment with NCI-H187 [5] was inactive.

Take `COC(=O)[C@@]1(O)C[C@@H](C)O[C@H]1O[C@@H]1C[C@@H]2CC[C@@H]3[C@H](CC[C@]4(C)[C@@H](C5=CC(=O)OC5)CC[C@]34O)[C@@]2(C=O)C[C@H]1O` [CALACTINICACID METHYL ESTER]: the results for the IC50 (with NCI-H187 [1]; with KB [2]; in experiment [3]) were 14.4 µM, 3.73 µM and 5.65 µM, respectively.

As to `C[C@@H]1C[C@@H](O)[C@]2(O)O[C@@H]3C[C@@]4(C=O)[C@@H](CC[C@@H]5[C@@H]4CC[C@]4(C)[C@@H](C6=CC(=O)OC6)CC[C@]54O)C[C@H]3O[C@@H]2O1` [CALACTIN], the result in the experiment on Plasmodium falciparum was inactive. For the same compound, the figures for the IC50 (in the experiment on NCI-H187 [1]; in the experiment on KB [2]; in experiment [3]) were 0.345 µM, 0.0413 µM and 0.0207 µM, respectively.

On to `C[C@@H]1C[C@H](O)[C@]2(O)O[C@@H]3C[C@@]4(C=O)[C@@H](CC[C@@H]5[C@@H]4CC[C@]4(C)[C@@H](C6=CC(=O)OC6)CC[C@]54O)C[C@H]3O[C@@H]2O1` [CALOTROPIN], for which the result in the experiment with Plasmodium falciparum was inactive. In addition, the IC50 is 0.471 µM in the experiment on NCI-H187 [1], 0.062 µM with KB [2] and 0.0413 µM in experiment [3].

Consider `C[C@]12CC[C@H](O)C[C@H]1CC[C@@H]1[C@@H]2CC[C@]2(C)[C@@H](C3=CC(=O)OC3)CC[C@]12O` [DIGITOXIGENIN], for which the outcome in the experiment with Plasmodium falciparum was inactive. Moreover, the IC50 in the experiment with NCI-H187 [1] amounted to 9.77 µM; with KB [2] it was 9.61 µM; in experiment [3] it was 8.95 µM.

`COc1cccc2c1C(=O)c1c(O)c3c(c(O)c1C2=O)C[C@@](O)(C(=O)CO)C[C@@H]3O[C@H]1C[C@H](N)[C@H](O)[C@H](C)O1` [DOXORUBICIN]: the figures for the half-maximal inhibitory concentration (IC50) (in the experiment with NCI-H187 [1]; with KB [2]; in experiment [3]) were 0.0405 µM, 0.219 µM and 0.288 µM, respectively.

Take `Cc1c2ccncc2c(C)c2c1[nH]c1ccccc12` [ELLIPTECINE]: the results for the IC50 (in the experiment on NCI-H187 [1]; with KB [2]; in experiment [3]) were 2.23 µM, 0.812 µM and 0.682 µM, respectively.
